Experiments:
Type in all cases: cell-based
[1] = tested on: CCRFCEM; test: Growth suppression activity in human tumor cell line; settings: CCRF-CEM, 72 h, Human hematopoietic organ tumor, 3 days
Procedure: (§1) Human tumor cell lines different in type were suspended in mediums, seeded in individual wells of a multi-well plate and cultured. On the day after initiation of culture, serially diluted solutions of a compound were added. Culture was carried out for further 3 days. Cells were counted by a CellTiter-Glo (manufactured by Promega KK) in accordance with the protocol recommended by Promega KK. Cell viability was calculated in accordance with the equation shown below and the concentration (IC50 (μM)) of the compound at which 50% of cell growth is inhibited was obtained.
(§2) T: Intensity of light emitted from a well containing a compound
(§3) C: Intensity of light emitted from a well containing no compound

[2] = tested on: H1975; test: as above; settings: NCI-H1975, 72 h; Human lung cancer, H1975, 3 days
Procedure: as §1, §2, §3

[3] = tested on: SPC111; test: as above; settings: 72 h; Human lung cancer, SPC111, 3 days
Procedure: as §1, §2, §3

[4] = tested on: CAPAN2; test: as above; settings: Capan-2, 72 h; Human pancreatic cancer, CAPAN2, 3 days
Procedure: as §1, §2, §3

[5] = tested on: Mero82; test: as above; settings: 72 h; Human lung cancer, Mero82, 3 days
Procedure: as §1, §2, §3

[6] = tested on: LN229; test: as above; settings: LN-229, 72 h; Human brain tumor, LN229, 3 days
Procedure: as §1, §2, §3

[7] = tested on: A2780; test: as above; settings: 72 h; Human ovary cancer, A2780, 3 days
Procedure: as §1, §2, §3

[8] = tested on: HS746T; test: as above; settings: 72 h, Human stomach cancer, 3 days
Procedure: as §1, §2, §3

[9] = tested on: Mero83; test: as above; settings: 72 h; Human lung cancer, Mero83, 3 days
Procedure: as §1, §2, §3

[10] = tested on: MIAPACA2; test: as above; settings: MIA PaCa-2, 72 h; Human pancreatic cancer, MIAPACA2, 3 days
Procedure: as §1, §2, §3

[11] = tested on: H2126; test: as above; settings: NCI-H2126, 72 h; Human lung cancer, H2126, 3 days
Procedure: as §1, §2, §3

[12] = tested on: H2081; test: as above; settings: NCI-H2081, 72 h; Human lung cancer, H2081, 3 days
Procedure: as §1, §2, §3

[13] = tested on: MOLT4; test: as above; settings: MOLT-4, 72 h; Human hematopoietic organ tumor, MOLT4, 3 days
Procedure: as §1, §2, §3

[14] = tested on: K562; test: as above; settings: 72 h; Human hematopoietic organ tumor, K562, 3 days
Procedure: as §1, §2, §3

[15] = tested on: DOK; test: as above; settings: 72 h, Human head and neck cancer, 3 days
Procedure: as §1, §2, §3

[16] = tested on: CFPAC1; test: as above; settings: CFPAC-1, 72 h; Human pancreatic cancer, CFPAC1, 3 days
Procedure: as §1, §2, §3

[17] = tested on: SDM103T2; test: as above; settings: 72 h; Human lung cancer, SDM103T2, 3 days
Procedure: as §1, §2, §3

[18] = tested on: MV-4-11; test: as above; settings: MV4-11, 72 h; Human hematopoietic organ tumor, MV-4-11, 3 days
Procedure: as §1, §2, §3

[19] = tested on: COL0792; test: as above; settings: 72 h; Human skin cancer, COL0792, 3 days
Procedure: as §1, §2, §3

[20] = tested on: H23; test: as above; settings: NCI-H23, 72 h; Human lung cancer, H23, 3 days
Procedure: as §1, §2, §3

[21] = tested on: N87; test: as above; settings: 72 h; Human stomach cancer, N87, 3 days
Procedure: as §1, §2, §3

[22] = tested on: MES01; test: as above; settings: 72 h; Human lung cancer, MES01, 3 days
Procedure: as §1, §2, §3

[23] = tested on: NUGC3; test: as above; settings: NUGC-3, 72 h; Human stomach cancer, NUGC3, 3 days
Procedure: as §1, §2, §3

[24] = tested on: BCP1; test: as above; settings: BCP-1, 72 h; Human hematopoietic organ tumor, BCP1, 3 days
Procedure: as §1, §2, §3

[25] = tested on: A549; test: Growth suppression activity to human tumor cell line (Evaluation 2); settings: A549, 72 h, Human lung cancer, A549, 3 days
Procedure: as §1, with “(nM))” for “(μM))”
as §2, §3

[26] = tested on: HCC827; test: as above; settings: Human lung cancer, HCC827, 3 days
Procedure: as §1, with “(nM))” for “(μM))”
as §2, §3

[27] = tested on: SK-BR-3; test: as above; settings: Human breast cancer, SK-BR-3, 3 days
Procedure: as §1, with “(nM))” for “(μM))”
as §2, §3

[28] = tested on: A431; test: as above; settings: Human epidermoid carcinoma, A431, 3 days
Procedure: as §1, with “(nM))” for “(μM))”
as §2, §3

[29] = tested on: H1650; test: as above; settings: NCI-H1650, 72 h, Human lung cancer, H1650, 3 days
Procedure: as §1, with “(nM))” for “(μM))”
as §2, §3

[30] = tested on: RKO; test: as above; settings: 72 h, Human colorectal cancer, 3 days
Procedure: as §1, with “(nM))” for “(μM))”
as §2, §3

[31] = tested on: H2122; test: as above; settings: NCI-H2122, 72 h, Human lung cancer, H2122, 3 days
Procedure: as §1, with “(nM))” for “(μM))”
as §2, §3

[32] = tested on: H358; test: as above; settings: NCI-H358, 72 h, Human lung cancer, H358, 3 days
Procedure: as §1, with “(nM))” for “(μM))”
as §2, §3

Compound: Nc1ncnc2c1c(Br)cn2[C@@H]1O[C@H](CO)[C@@H](O)[C@@H]1F [Comparative Example 1, (2R,3R,4S,5R)-5-(4-amino-5-bromo-7H-pyrrolo[2,3-d]pyrimidin-7-yl)-4-fluoro-2-(hydroxymethyl) tetrahydrofuran-3-ol]
- IC50 [1]: 0.05 µM
- IC50 [2]: 0.07 µM
- IC50 [3]: 0.36 µM
- IC50 [4]: 0.05 µM
- IC50 [5]: 0.46 µM
- IC50 [6]: 0.63 µM
- IC50 [7]: 0.05 µM
- IC50 [8]: 0.25 µM
- IC50 [9]: 0.35 µM
- IC50 [10]: 0.07 µM
- IC50 [11]: 0.11 µM
- IC50 [12]: 0.09 µM
- IC50 [13]: 0.06 µM
- IC50 [14]: 0.11 µM
- IC50 [15]: 0.11 µM
- IC50 [16]: 0.11 µM
- IC50 [17]: 0.58 µM
- IC50 [18]: 0.03 µM
- IC50 [19]: 0.89 µM
- IC50 [20]: 0.05 µM
- IC50 [21]: 0.03 µM
- IC50 [22]: 0.41 µM
- IC50 [23]: 0.07 µM
- IC50 [24]: 0.11 µM
- IC50 [25]: 0.014 µM
- IC50 ([26]; Homo sapiens, HCC827, 72 h): 0.228 µM
- IC50 [26]: 0.176 µM
- IC50 ([27]; Homo sapiens, SK-BR-3, 72 h): 0.026 µM
- IC50 [27]: 0.023 µM
- IC50 ([28]; Homo sapiens, A-431, 72 h): 0.032 µM
- IC50 [28]: 0.018 µM
- IC50 [29]: 0.008 µM
- IC50 [30]: 0.031 µM
- IC50 [31]: 0.009 µM
- IC50 [32]: 0.052 µM
